The test system of data set [1] is Trypanosoma cruzi. Kind of data set: (§1) DNDI: Chagas in Vitro. Type of data set: functional, organism-based, Tulahuen C4 (LacZ).
Data set [2] concerns Trypanosoma cruzi. The description is as §1. It is filed as functional, Tulahuen C4 (LacZ).
Data set [3] has as its system Trypanosoma cruzi. Kind of data set: DNDI: Chagas in vivo at 20 mg/kg, 20 days 2x. Type of data set: functional, Tulahuen Swiss po.
The test system of data set [4] is Trypanosoma cruzi. Kind of data set: DNDI: Chagas in vivo at 50 mg/kg, 20 days 1x. Type of data set: functional, Tulahuen Swiss po.
The nature of data set [5]: (§2) DNDI: Cytotoxicity in vitro, against rat skeletal myoblast (L-6) cells. To be noted: L-6 cells (skeletal myoblasts), IC50.
The test system of data set [6] is Trypanosoma brucei rhodesiense. Briefly: DNDI: HAT in Vitro. Type of data set: functional, organism-based, ATCC 30027.
The test system of the next data set is Leishmania donovani. Kind of data set: DNDI: Leish macro in vitro at 10 uM. Type of data set: functional. The note with it: MHOM/ET/67/L82.
The nature of data set [7]: DNDI: Lipophilicity (gLogD) at pH 3. The note with it: buffer, pH 3, logD.
The nature of data set [8]: DNDI: Lipophilicity (gLogD) at pH 7.4. To be noted: buffer, pH 7.4, logD.
The nature of data set [9]: DNDI: Protein binding in mouse plasma.
A short description of data set [10]: DNDI: Protein binding in rat plasma. It is filed as ADME, cell-free. To be noted: read-out: % bound (converted).
The nature of data set [11]: DNDI: Solubility in 0.01M HCl at pH 2 determined by nephelometry. To be noted: 0.01M HCl, pH 2, Kinetic.
A short description of data set [12]: DNDI: Solubility in phosphate buffer at pH 6.5 determined by nephelometry. To be noted: phosphate buffer, pH 6.5, Kinetic.
The nature of data set [13]: in vitro. To be noted: human, microsomes.
The nature of data set [14]: in vitro. To be noted: human, microsomes, t (1 / 2).
Data set [15] is described as follows: in vitro. The note with it: mouse, microsomes.
Data set [16] in a line: in vitro. To be noted: mouse, microsomes. This is another data set of the same source.
The nature of data set [17]: in vitro. The note with it: rat, hepatocytes.
Data set [18] can be described thus: in vitro. To be noted: rat, microsomes.
The nature of data set [19]: in vitro. The note with it: rat, microsomes. This is another data set of the same source.
The next data set addresses Cytochrome P450 3A4 (Homo sapiens, UniProt P08684). Kind of data set: DNDI: Human CYP3A4 inhibition determined using 6b-hydroxylation of testosterone.
The target of data set [20] is T1, CYP3A4 (Homo sapiens, UniProt P08684). Briefly: DNDI: Human CYP3A4 inhibition at 1 uM determined using 6b-hydroxylation of testosterone. To be noted: probe testosterone (6b-hydroxylation).
T1 sequence (P08684 whole entry): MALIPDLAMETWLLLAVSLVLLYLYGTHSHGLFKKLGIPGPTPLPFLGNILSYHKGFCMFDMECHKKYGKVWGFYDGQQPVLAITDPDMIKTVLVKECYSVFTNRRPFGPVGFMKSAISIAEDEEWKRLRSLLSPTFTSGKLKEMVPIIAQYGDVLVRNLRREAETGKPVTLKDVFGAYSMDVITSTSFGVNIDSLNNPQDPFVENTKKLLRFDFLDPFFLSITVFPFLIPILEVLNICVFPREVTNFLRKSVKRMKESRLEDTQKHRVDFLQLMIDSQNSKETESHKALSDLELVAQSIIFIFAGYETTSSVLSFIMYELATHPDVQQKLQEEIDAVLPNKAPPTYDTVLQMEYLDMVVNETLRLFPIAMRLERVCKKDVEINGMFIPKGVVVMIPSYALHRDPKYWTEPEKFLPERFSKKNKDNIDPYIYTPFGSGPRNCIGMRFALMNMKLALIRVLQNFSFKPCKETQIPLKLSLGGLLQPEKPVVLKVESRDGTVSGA
The target of data set [21] is T1, CYP3A4. Briefly: DNDI: Human CYP3A4 inhibition at 10 uM determined using 6b-hydroxylation of testosterone. The note with it: probe testosterone (6b-hydroxylation).
A further data set relates to L6. The data set is described as §2. To be noted: L-6 cells (skeletal myoblasts).
The nature of data set [22]: DNDI: Cytotoxicity in vitro, against human lung fibroblast (MRC-5) cells. To be noted: MRC-5 cells (lung fibroblasts).
The test system of the next data set is Leishmania infantum. Kind of data set: DNDI: Leish (macro) in Vitro. It is filed as functional, organism-based, MHOM/MA(BE)/67.
Data set [23] can be described thus: in vitro. To be noted: human, microsomes, EH.
Data set [24] in a line: DNDI: Metabolism. The note with it: rat, microsomes. Type of data set: ADME, Microsome.
The nature of data set [25]: in vitro. The note with it: rat, microsomes. The source holds these as a separate data set.
A short description of data set [26]: in vitro. The note with it: mouse, microsomes. The source holds these as a separate data set.
Setting [27] is: Trypanosoma cruzi, Tulahuen C4 (LacZ).

pIC50: −log10 of the molar value. ≈ marks a conversion by molar mass, not a printed value. Where “and” joins values, the source holds several entries; their conditions need not be identical. Identical values can stand only once. Some results are limits rather than exact numbers.

Sequence of Cytochrome P450 3A4 (P08684 whole entry): as above

Regarding `CO/N=C(\C)c1ccc(-n2ccnc2)c(NC(=O)c2cnc(-c3ccccc3)nc2)c1`, the negative-log IC50 (pIC50) with Trypanosoma cruzi [1] was 8.52 and 8.10; in [5], less than 4.00; in data set [6] (Trypanosoma brucei, ATCC 30027) it was less than 5.00. In addition, the IC90 with Trypanosoma cruzi [2] was 0.0105 µM and 0.0259 µM. Besides, the PCR cure rate in the data set on Trypanosoma cruzi [3] and in the data set with Trypanosoma cruzi [4] was 0% each time. The “Parasitemia clearance after immunosuppression” value in the data set with Trypanosoma cruzi [3] is 60%; in the data set on Trypanosoma cruzi [4] it was 0%. Moreover, the “Parasitemia clearance after treatment” value worked out at 80% with Trypanosoma cruzi [3] and 60% in the data set with Trypanosoma cruzi [4]. This molecule displayed an inhibition at 10 µM in the data set with Leishmania donovani of 47.3%. Moreover, the chromatographic logD in data set [7] was 2.6; in [8] it was 3.4. For the same molecule, the fraction unbound in [9] was 0.028; in [10], 0.014. For the same molecule, the kinetic solubility in data set [11] is greater than 100 µg/mL; in data set [12], less than 1.6 µg/mL. Besides, the microsomal CLint in “in vitro [13]” was found to be 24 µL/min/mg; in “in vitro [15]”, 34 µL/min/mg; in “in vitro [19]” it was 46 µL/min/mg. The half-life in the data set “in vitro [14]” was found to be 73 min; in the data set “in vitro [16]” it was 52 min; in “in vitro [18]”, 38 min. In the data set “in vitro [17]”, the CLhep predicted was 26.7 mL/min/kg.

In the case of `CN(CC(O)COc1ccc2cc(Br)ccc2c1)C1CCCCC1` (centres undefined), the pIC50 was 5.33 in the data set on Trypanosoma cruzi [1]; 5.34 in the data set with Trypanosoma cruzi [1] (setting [27]); less than 5.00 on Cytochrome P450 3A4; 4.78 in [5]; 4.77 in the data set on L6; less than 4.19 in data set [22]. Further, the pIC50 with Leishmania infantum was 5.77 and 5.70; in the data set with Leishmania infantum (Leishmania infantum, MHOM/MA(BE)/67), 5.90. Moreover, the results for the 90% effect concentration (IC90) in the data set on Trypanosoma cruzi [2] and with Trypanosoma cruzi [2] (setting [27]) were 7.84 µM and 8.48 µM, respectively. Also, at 1 µM the inhibition against CYP3A4 [20] was 5%. The molecule further yielded an inhibition at 10 µM at CYP3A4 [21] of 11%. For the same molecule, the chromatographic logD in data set [7] turned out to be 2.6; in data set [8] it was 3.6. In addition, the kinetic solubility in data set [11] and in data set [12] was greater than 100 µg/mL each time. Moreover, the microsomal CLint in the data set “in vitro [13]” was 13 µL/min/mg. For the same molecule, the hepatic extraction ratio in the data set “in vitro [23]” stood at 0.34. Further, the half-life in “in vitro [14]” worked out at 132 min.

Regarding `CC(C)N(C)CC(O)COc1ccc2cc(Br)ccc2c1` (centres undefined), the negative-log IC50 (pIC50) with Trypanosoma cruzi [1] is 5.19 and 5.27 and 5.24 and 5.18; with Trypanosoma cruzi [1] (setting [27]) it was less than 5.00; against Cytochrome P450 3A4, less than 4.70; in [5], 4.72; with L6, 4.46; in data set [22], less than 4.19. For the same molecule, the pIC50 was 6.29 and 5.81 in data set [6]; 5.17 and 5.62 in the data set with Leishmania infantum. Further, the IC90 with Trypanosoma cruzi [2] is 8.95 µM and 8.79 µM and > 10 µM; in the data set with Trypanosoma cruzi [2] (setting [27]) it was 8.78 µM. Moreover, the chromatographic logD was found to be 2.6 in data set [7] and 3.6 in [8]. The solubility (kinetic) in data set [11] and in data set [12] was greater than 100 µg/mL throughout. Further, in “in vitro [13]”, the microsomal CLint is less than 7 µL/min/mg. The hepatic extraction ratio in the data set “in vitro [23]” is less than 0.23. In the data set “in vitro [14]”, this molecule had a half-life greater than 250 min.

In the case of `CO/N=C(\C)c1ccc(-n2ccnc2)c(NC(=O)c2ccc(-c3ccccc3)cc2)c1`, the negative logarithm of the IC50 (pIC50) in the data set on Trypanosoma cruzi [1] (setting [27]) is 7.69; in data set [5], less than 4.00. It took 0.065 µM to reach the 90% level with Trypanosoma cruzi [2] (setting [27]) (IC90). Besides, the chromatographic logD in data set [7] worked out at 3.1; in [8], 3.9. This molecule returned a CLblood in [24] of 35 mL/min/kg. The results for the solubility (kinetic) in data set [11] and in data set [12] were greater than 100 µg/mL and less than 1.6 µg/mL, respectively. For the same molecule, the figures for the microsomal CLint in “in vitro [13]”, in the data set “in vitro [15]” and in the data set “in vitro [19]” were 30 µL/min/mg, 31 µL/min/mg and 43 µL/min/mg, respectively. Besides, the half-life in the data set “in vitro [14]” amounted to 58 min; in “in vitro [16]”, 56 min; in the data set “in vitro [18]”, 40 min. Besides, the CLhep predicted in “in vitro [17]” is 24.5 mL/min/kg.

Regarding `CO/N=C(\C)c1ccc(-n2ccnc2)c(NC(=O)c2ccc(-c3ccccn3)s2)c1`, the 90% effect concentration (IC90) in the data set with Trypanosoma cruzi [2] was > 0.1 µM and 0.0128 µM. For the same molecule, the results for the pIC50 (on Cytochrome P450 3A4; in data set [5]; in the data set on L6) were 5.70, 4.18 and 4.14, respectively. The values for the chromatographic logD in data set [7] and in [8] were 2.3 and 3.1, respectively. The molecule also came in with a CLblood in data set [24] of 42 mL/min/kg. Besides, the solubility (kinetic) in [11] is greater than 100 µg/mL. In addition, the microsomal CLint turned out to be 30 µL/min/mg in the data set “in vitro [13]” and 64 µL/min/mg in the data set “in vitro [19]”. In addition, the hepatic extraction ratio in the data set “in vitro [23]” was determined as 0.54; in the data set “in vitro [25]”, 0.62. For the same molecule, the half-life in “in vitro [14]” stood at 57 min; in the data set “in vitro [18]”, 27 min.

Consider `CO/N=C(\C)c1ccc(-n2ccnc2)c(NC(=O)c2cnc(-c3ccccc3)cn2)c1`, for which the values for the pIC50 (in the data set on Trypanosoma cruzi [1] (setting [27]); in data set [5]) were 8.60 and 4.23, respectively. The 90% effect level with Trypanosoma cruzi [2] (setting [27]) (IC90) was put at 0.0089 µM. The figures for the chromatographic logD in data set [7] and in data set [8] were 2.6 and 3.9, respectively. In [24], this molecule displayed a CLblood of 38 mL/min/kg. The kinetic solubility in data set [11] was 25 µg/mL (≈ 60.6 µM); in [12] it was less than 1.6 µg/mL. Further, the intrinsic metabolic clearance (microsomal CLint) in “in vitro [13]” stood at 30 µL/min/mg; in the data set “in vitro [15]”, 29 µL/min/mg; in the data set “in vitro [19]” it was 50 µL/min/mg. The half-life in “in vitro [14]” was 58 min; in the data set “in vitro [16]”, 61 min; in “in vitro [18]”, 35 min. For the same molecule, the CLhep predicted in the data set “in vitro [17]” is 32.3 mL/min/kg.

Turning to `CC(=O)N(Cc1c[nH]cn1)c1ccc(-c2nc3ccccc3s2)cc1`, the pIC50 with Trypanosoma cruzi [1] (setting [27]) is 7.87; on Cytochrome P450 3A4, less than 5.00; in [5] it was 4.20. The same molecule displayed an IC90 in the data set on Trypanosoma cruzi [2] (setting [27]) of 0.027 µM. At CYP3A4 [20], the inhibition at 1 µM was 0.3%. The molecule also registered an inhibition at 10 µM at CYP3A4 [21] of 28.1%. The figures for the chromatographic logD in [7] and in data set [8] were 1.6 and 2.1, respectively. For the same molecule, the kinetic solubility in data set [11] was greater than 100 µg/mL. Besides, the microsomal CLint was 14 µL/min/mg in “in vitro [13]” and 21 µL/min/mg in “in vitro [15]”. Moreover, the hepatic extraction ratio amounted to 0.35 in the data set “in vitro [23]” and 0.32 in “in vitro [26]”. The half-life in “in vitro [14]” was found to be 123 min; in the data set “in vitro [16]” it was 81 min.

These data come from ChEMBL document CHEMBL2448688, “Selection and optimization of hits from a high-throughput phenotypic screen against Trypanosoma cruzi. Exported from HEOS 25-Oct-2013. See also related datasets CHEMBL3137440 and CHEMBL3137386”.
